Here are results for 25 compounds from ChEMBL document CHEMBL1201862, “PubChem BioAssay data set” (2004).

Activity calls are given as the source filed them.

A word on the EC50: it is the midpoint of the concentration-response curve. For orientation: AC50 means the concentration giving half of the maximal activity seen.

The target of test [1] is Voltage-dependent T-type calcium channel subunit alpha-1H (Homo sapiens, UniProt O95180). The class given is functional.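 Note: channel activity triggered by adding a high calcium stimulation buffer.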
For test [2], the target named is T1, Calpain-2 catalytic subunit (Sus scrofa, UniProt P43367).
T1 sequence (P43367 whole entry): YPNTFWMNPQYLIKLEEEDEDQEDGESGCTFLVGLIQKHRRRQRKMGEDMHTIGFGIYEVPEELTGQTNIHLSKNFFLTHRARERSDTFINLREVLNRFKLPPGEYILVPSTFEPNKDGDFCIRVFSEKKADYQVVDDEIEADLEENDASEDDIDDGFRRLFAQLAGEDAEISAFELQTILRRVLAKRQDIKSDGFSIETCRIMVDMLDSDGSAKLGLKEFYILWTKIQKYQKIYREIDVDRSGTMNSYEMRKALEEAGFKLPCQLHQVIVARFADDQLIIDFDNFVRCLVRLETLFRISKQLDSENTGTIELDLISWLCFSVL
Briefly: pig calpain II inhibitor potency, dose response, biochemical, fluorogenic peptide substrate (AID 1420). It counts as functional.

Test [3] addresses T2, Polyadenylate-binding protein 1 (Homo sapiens, UniProt P11940). Briefly: PABP1 MLLE–PAM2 binding inhibitor potency, dose response, biochemical, fluorescence polarization, FITC-PAM2 peptide (AID 602259). It counts as functional. Conditions: read-out: IC50_Mean. Background: In fluorescence polarisation assays a small probe gives low polarisation when free and higher when bound to something large.

Test [4] addresses T2, Polyadenylate-binding protein 1. Briefly: PABP1 MLLE–PAM2 interaction inhibitors, dose response, miRNA deadenylation inhibitor project, biochemical, fluorescence polarization, Cy5-PAM2 peptide, secondary (AID 602260). The class given is functional. The note with it: read-out: IC50_Mean.
For test [5], the target named is FAD-linked sulfhydryl oxidase ALR (Homo sapiens, UniProt P55789). The test can be described thus: inhibitors of human ALR sulfhydryl oxidase, dose response, biochemical, H2O2 detection, luminescence, cherry-pick (AID 493248).
In test [6] the target is Luciferin 4-monooxygenase (Photinus pyralis, UniProt P08659). The test can be described thus: firefly luciferase enzyme inhibitors, dose response, biochemical, luminescence (AID 1891).
Test [7] can be described thus: Luminescence Cell-Based Dose Confirmation HTS to Identify Inhibitors of Platelet Dense Granule Release. [Related pubchem assays: 1663 (Primary HTS), 1678 (Summary of Project)]. It counts as functional.
For test [8], the system named is Streptococcus. Briefly: Group A Streptococcus viability loss, dose response, counter-screen for streptokinase expression inhibitor project, luminescence, BacTiterGlo (AID 1915).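 Note: potency for reduction of bacterial viability or growth.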 The class given is functional, organism-based.
The target of test [9] is T3, Streptokinase A (Streptococcus pyogenes serotype M1, UniProt P10520).
T3 sequence (P10520 whole entry): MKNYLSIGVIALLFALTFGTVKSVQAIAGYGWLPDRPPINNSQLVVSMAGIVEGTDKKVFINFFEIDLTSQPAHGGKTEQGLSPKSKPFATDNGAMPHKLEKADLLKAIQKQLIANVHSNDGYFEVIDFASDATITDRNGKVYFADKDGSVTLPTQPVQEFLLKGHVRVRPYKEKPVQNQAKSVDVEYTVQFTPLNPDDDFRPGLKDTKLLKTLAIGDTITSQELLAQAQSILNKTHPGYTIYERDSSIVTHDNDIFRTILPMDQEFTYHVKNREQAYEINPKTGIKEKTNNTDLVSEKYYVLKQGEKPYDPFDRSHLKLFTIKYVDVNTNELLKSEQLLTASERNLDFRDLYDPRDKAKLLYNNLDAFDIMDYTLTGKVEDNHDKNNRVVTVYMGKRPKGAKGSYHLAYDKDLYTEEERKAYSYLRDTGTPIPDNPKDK
The test can be described thus: S. pyogenes streptokinase expression inhibitors, potency, dose response, plasminogen activation absorbance, OD405 (AID 1914).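 Note: secreted streptokinase activity via plasminogen activation per viability signal from cell pellet.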 It counts as functional, Streptococcus pyogenes M1 GAS.

Test [10] concerns Streptococcus sp. 'group A'. The test can be described thus: growth inhibition of control SK(-) GAS strain, dose response, counter-screen for streptokinase expression inhibitor project, luminescence, kanamycin, BacTiterGlo, confirmation (AID 1900). It counts as functional, organism-based. (A counterscreen serves to expose hits that act by an unwanted route or on another target.)

Test [11] addresses T4, Rac GTPase-activating protein 1 (Homo sapiens, UniProt Q9H0H5).
T4 sequence (Q9H0H5 whole entry): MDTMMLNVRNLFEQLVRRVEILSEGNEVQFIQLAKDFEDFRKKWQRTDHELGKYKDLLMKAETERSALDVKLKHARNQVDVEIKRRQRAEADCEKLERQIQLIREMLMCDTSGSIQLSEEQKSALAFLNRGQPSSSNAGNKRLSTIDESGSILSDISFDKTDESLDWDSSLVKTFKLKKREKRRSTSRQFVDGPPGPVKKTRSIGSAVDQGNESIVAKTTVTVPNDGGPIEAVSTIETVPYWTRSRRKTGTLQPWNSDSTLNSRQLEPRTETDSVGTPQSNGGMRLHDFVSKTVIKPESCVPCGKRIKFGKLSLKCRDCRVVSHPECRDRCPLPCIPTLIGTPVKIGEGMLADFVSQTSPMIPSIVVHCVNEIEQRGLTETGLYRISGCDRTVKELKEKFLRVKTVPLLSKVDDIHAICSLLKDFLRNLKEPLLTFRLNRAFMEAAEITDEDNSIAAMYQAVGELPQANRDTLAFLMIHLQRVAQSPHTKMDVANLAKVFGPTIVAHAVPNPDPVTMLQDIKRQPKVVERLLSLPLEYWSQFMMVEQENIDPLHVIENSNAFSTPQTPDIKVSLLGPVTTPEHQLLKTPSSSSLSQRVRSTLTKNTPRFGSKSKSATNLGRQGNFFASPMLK
The test can be described thus: MgcRacGAP GTPase-activating activity inhibitors, confirmation, biochemical, ADP Hunter fluorescence, primary and confirmatory (AID 624330). The class given is functional.

Test [12] addresses T5, Heat shock factor protein 1 (Mus musculus, UniProt P38532).
T5 sequence (P38532 whole entry): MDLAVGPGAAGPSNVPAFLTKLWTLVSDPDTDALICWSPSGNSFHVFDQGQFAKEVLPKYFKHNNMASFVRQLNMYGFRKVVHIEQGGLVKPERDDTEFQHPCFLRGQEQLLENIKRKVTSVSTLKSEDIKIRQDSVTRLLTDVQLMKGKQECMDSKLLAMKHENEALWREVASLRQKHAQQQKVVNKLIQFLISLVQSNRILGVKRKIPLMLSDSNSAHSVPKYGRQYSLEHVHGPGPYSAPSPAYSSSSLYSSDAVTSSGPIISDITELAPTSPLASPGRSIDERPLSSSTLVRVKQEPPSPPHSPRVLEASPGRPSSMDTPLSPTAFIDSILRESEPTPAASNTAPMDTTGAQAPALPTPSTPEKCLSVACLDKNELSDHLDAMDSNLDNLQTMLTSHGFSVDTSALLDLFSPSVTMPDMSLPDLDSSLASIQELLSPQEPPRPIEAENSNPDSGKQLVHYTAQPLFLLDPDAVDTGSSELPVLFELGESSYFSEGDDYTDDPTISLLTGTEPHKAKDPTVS
Briefly: inhibition of MG132-induced HSE-luciferase signal, confirmation, cell-based, NIH3T3, luminescence, dose retest (AID 2382).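 Note: NIH3T3 fibroblasts with HSF1-driven luciferase reporter stressed by proteasome inhibitor MG132; luminescence from HSF1-driven luciferase expression after 8 hours of MG132 stress.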 It counts as functional.

Test [13] deals with Cytochrome P450 2D6 (Homo sapiens, UniProt P10635).
The target in test [14] is Cytochrome P450 2C9 (Homo sapiens, UniProt P11712).
Test [15] is described as follows: cells. It counts as functional.
Test [16] can be described thus: microbe, parasite or virus in culture. It counts as functional. Conditions: Mycobacterium tuberculosis.
Test [17] addresses Cytochrome P450 3A4 (Homo sapiens, UniProt P08684).

T2 sequence (P11940 whole entry): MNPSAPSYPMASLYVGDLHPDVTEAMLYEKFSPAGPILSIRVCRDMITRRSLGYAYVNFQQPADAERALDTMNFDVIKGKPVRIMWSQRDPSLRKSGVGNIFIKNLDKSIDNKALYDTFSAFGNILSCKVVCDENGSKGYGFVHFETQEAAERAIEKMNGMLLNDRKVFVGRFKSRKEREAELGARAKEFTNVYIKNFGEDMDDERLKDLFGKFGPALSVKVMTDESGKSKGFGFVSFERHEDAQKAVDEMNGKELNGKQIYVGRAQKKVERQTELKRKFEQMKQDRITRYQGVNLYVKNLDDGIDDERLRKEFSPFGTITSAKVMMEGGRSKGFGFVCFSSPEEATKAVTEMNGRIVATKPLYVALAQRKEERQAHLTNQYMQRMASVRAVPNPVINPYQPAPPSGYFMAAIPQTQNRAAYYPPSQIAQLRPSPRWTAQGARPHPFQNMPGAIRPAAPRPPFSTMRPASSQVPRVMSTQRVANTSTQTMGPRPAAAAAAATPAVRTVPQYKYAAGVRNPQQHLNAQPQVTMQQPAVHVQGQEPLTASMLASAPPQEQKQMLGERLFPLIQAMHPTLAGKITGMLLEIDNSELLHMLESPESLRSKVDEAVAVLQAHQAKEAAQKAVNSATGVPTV
Sequence of FAD-linked sulfhydryl oxidase ALR (P55789 whole entry): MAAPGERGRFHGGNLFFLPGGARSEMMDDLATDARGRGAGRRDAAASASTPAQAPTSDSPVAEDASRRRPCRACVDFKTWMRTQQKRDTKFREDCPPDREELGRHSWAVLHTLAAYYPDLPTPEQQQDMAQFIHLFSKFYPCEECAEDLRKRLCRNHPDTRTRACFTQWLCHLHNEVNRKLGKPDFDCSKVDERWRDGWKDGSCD
Sequence of Luciferin 4-monooxygenase (P08659 whole entry): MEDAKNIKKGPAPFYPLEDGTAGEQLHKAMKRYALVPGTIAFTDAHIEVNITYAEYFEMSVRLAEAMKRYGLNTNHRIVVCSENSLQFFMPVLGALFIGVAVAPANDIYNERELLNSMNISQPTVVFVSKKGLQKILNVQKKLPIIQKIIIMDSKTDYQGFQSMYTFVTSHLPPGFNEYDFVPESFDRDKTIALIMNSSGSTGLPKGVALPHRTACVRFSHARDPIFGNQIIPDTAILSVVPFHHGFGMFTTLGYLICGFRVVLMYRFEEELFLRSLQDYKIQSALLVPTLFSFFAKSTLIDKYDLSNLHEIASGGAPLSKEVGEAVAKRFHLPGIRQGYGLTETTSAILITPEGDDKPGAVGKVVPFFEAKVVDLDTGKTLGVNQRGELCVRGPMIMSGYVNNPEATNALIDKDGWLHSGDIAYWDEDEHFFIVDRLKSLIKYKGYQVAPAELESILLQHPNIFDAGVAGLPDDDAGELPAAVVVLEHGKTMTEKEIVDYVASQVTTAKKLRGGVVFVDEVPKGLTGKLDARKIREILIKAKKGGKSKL
Sequence of Voltage-dependent T-type calcium channel subunit alpha-1H (O95180 whole entry): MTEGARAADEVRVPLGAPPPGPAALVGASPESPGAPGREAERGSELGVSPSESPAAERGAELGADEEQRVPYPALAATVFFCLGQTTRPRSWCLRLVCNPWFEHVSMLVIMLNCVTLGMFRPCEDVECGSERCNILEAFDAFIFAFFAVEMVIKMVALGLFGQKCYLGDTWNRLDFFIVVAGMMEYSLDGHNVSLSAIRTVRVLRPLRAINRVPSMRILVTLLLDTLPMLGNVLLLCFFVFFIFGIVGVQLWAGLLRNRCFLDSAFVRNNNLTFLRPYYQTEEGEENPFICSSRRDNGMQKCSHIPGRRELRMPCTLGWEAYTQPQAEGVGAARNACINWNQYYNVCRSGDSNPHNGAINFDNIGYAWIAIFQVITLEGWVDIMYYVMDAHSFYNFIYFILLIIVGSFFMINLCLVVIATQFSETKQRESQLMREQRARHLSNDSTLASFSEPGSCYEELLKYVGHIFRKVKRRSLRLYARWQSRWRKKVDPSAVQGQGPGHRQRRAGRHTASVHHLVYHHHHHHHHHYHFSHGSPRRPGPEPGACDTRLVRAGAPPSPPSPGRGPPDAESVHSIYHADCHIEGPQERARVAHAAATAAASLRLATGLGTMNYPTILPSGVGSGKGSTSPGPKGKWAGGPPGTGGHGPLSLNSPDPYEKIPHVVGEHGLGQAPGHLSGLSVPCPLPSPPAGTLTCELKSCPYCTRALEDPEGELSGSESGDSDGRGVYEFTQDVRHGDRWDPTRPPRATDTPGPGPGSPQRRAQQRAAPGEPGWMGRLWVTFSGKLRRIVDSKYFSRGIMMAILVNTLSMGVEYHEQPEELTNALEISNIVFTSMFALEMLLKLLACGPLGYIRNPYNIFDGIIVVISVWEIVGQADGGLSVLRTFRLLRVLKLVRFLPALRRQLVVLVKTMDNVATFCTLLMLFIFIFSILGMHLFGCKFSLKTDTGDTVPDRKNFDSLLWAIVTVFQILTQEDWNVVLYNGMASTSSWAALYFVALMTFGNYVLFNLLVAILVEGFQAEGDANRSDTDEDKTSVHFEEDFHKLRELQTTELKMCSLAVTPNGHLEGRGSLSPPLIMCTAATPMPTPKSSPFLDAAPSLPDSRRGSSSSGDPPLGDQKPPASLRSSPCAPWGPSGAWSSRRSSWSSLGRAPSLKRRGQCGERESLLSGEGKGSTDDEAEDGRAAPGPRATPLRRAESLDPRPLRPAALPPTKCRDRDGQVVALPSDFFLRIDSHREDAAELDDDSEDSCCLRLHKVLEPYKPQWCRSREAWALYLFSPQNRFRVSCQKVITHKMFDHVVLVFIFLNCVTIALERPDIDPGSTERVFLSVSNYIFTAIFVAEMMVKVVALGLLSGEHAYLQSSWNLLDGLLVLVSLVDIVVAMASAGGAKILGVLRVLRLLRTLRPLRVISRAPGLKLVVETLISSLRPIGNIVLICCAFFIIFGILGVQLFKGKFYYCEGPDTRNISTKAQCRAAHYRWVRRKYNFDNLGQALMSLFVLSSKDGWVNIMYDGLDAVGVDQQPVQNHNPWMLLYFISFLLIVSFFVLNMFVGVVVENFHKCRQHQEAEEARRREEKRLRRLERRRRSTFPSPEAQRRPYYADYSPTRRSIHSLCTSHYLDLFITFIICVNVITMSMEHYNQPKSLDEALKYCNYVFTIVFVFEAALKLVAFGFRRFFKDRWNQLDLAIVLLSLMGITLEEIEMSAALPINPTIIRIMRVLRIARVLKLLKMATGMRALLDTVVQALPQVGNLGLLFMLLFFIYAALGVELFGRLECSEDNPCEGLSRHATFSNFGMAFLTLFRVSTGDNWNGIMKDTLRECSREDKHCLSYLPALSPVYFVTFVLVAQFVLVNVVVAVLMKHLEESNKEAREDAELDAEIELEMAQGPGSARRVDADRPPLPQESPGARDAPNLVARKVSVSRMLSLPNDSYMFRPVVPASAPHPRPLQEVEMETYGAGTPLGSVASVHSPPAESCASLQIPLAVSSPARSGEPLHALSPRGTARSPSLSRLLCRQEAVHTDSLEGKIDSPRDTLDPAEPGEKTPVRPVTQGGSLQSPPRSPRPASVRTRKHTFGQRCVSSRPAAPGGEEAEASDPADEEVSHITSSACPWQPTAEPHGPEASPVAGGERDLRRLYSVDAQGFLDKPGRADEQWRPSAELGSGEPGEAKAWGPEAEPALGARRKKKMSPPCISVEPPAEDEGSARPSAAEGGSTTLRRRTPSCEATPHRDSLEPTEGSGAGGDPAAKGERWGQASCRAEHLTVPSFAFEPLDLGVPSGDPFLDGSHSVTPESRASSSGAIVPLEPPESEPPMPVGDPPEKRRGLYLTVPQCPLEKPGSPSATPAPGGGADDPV
Sequence of Cytochrome P450 2D6 (P10635 whole entry): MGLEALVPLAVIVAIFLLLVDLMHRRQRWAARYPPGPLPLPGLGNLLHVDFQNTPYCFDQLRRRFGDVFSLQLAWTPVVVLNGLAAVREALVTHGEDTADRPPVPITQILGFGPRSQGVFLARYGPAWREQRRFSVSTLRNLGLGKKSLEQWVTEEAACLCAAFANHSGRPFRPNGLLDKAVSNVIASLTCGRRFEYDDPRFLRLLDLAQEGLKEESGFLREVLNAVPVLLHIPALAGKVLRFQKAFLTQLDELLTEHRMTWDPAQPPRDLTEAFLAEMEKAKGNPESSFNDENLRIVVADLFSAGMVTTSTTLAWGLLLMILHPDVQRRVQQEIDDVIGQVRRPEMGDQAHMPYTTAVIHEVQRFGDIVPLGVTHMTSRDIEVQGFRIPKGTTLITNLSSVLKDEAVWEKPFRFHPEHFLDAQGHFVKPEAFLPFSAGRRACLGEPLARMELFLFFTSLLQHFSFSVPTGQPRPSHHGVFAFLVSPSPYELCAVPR
Sequence of Cytochrome P450 2C9 (P11712 whole entry): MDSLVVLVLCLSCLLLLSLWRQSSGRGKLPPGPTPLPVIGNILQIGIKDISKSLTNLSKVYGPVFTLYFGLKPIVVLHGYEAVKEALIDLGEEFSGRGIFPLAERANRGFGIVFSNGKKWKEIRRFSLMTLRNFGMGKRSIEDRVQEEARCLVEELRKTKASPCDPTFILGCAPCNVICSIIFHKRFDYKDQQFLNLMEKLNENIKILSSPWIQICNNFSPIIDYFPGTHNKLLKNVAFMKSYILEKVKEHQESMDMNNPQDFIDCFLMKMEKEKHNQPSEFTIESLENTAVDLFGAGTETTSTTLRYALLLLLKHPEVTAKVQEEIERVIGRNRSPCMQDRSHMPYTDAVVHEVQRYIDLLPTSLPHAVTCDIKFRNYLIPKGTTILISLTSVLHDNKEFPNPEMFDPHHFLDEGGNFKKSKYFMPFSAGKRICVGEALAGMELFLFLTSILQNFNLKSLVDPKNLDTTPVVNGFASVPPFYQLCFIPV

On to `Cn1cccc1Cc1nnc(SCC(=O)Nc2cccc(F)c2)n1-c1ccc(F)cc1`, for which, in test [1], the concentration for a half-maximal effect (EC50) was 3.35 µM (active).

Consider `Cc1ccc(-c2noc(CN(C(=O)CCCCCN3C(=O)c4ccccc4C3=O)C(C)C)n2)cc1`, for which, in [1], the EC50 is 7.53 µM (active). Also, the IC50 in [2] is 5.93 µM (not active).

As to `O=C(NC12CC3CC(CC(C3)C1)C2)c1cnccn1`, the IC50 was 38.7 µM (inactive) in test [3] and 43.3 µM (inactive) in test [4].

Consider `Nc1ccc(-c2cc(N)n(-c3ccccc3)n2)cc1`, for which the concentration at half-maximal activity (AC50) in test [5] is 0.8 µM (active).

For the compound `COc1ccc(-c2nn(-c3ccccc3)cc2C(=O)O)cc1OC`, the EC50 in test [6] and in [7] was > 112 µM (not active) in each case.

Turning to `Cc1ccc(C(=O)N2CCN(c3ccccc3O)CC2)cc1S(=O)(=O)N1CCCCC1`, the AC50 in test [5] was 9.33 µM (active).

Take `COc1ccc(NC(=S)N=Nc2c(O)[nH]c3ccccc23)cc1`: the values for the EC50 in test [8], in test [9] and in test [10] were 14.1 µM (active), > 150 µM (not active) and 2.34 µM (active), respectively. The IC50 in test [3] and in test [4] was > 66 µM (inactive) each time.

For the compound `O=C(O)CCCCCCC1C(=O)NC(=O)N1CCC(O)C1CCCCC1` (stereo not given), the EC50 is > 112 µM (not active) in test [6] and < 0.088 µM (active) in [7].

As for `Cn1cccc1Cc1nnc(SCC(=O)Nc2ccc(F)cc2)n1-c1ccc(F)cc1`, the EC50 in test [1] was 2.17 µM (active).

In the case of `COc1c(/C=N/NC(=O)c2ccccc2O)c(CCN(C)C(C)=O)cc2c1OCO2`, the EC50 in test [6] and in test [7] was > 112 µM (not active) in each case.

For the compound `O=C(CC(Nc1ccccc1Cl)C(=O)O)c1ccccc1` (stereo not given), the AC50 in test [5] was 13 µM (active).

Consider `Cc1cc(C)c(S(=O)(=O)Nc2ccc(N(C)C)cc2)c(C)c1-n1cnnn1`, for which, in test [11], the IC50 is 41.6 µM (active). Also, in test [5], the AC50 was 0.197 µM (active). The 50% effective concentration (EC50) in test [12] is given as > 195 µM (not active).

As to `COc1ccc2c(c1)N(C(=O)CSc1n[nH]c(C)n1)C(C)(C)C=C2C`, the EC50 in [6] and in [7] was > 112 µM (not active) in each case.

As to `COc1cccc(/C=C2\SC(=S)N(c3cccnc3)C2=O)c1OC`, the IC50 in test [3] and in test [4] was > 66 µM (inactive) each time.

`O=c1[nH]c2cc3c(cc2cc1CN(CCCO)Cc1nnnn1Cc1ccc(F)cc1)OCO3`: the AC50 is 12.6 µM (inconclusive) in test [13] and 11.2 µM (inconclusive) in test [14]. The IC50 in [3] and in [4] was > 66 µM (inactive) in each case.

Consider `CCCOC(=O)c1ccc(NC(=O)c2ccoc2C)cc1`, for which the concentration for a half-maximal effect (EC50) was 4.18 µM (active) in [6] and 5.2 µM (active) in test [7].

As to `CCOc1ccc(-c2cc(CCCC(=O)NCCC(C)C)no2)cc1`, the IC50 in [15] is 10.6 µM (active). In addition, the CC50 in test [16] is > 40 µM (active).

Consider `CCS(=O)(=O)n1nc(NCc2cccc(OC)c2)nc1NCc1cccc(OC)c1`, for which, in test [1], the EC50 is 8.18 µM (active).

Regarding `CNc1nnc(CSc2nc3ccccc3s2)s1`, the AC50 in test [5] is 0.714 µM (active).

For `CC1(c2ccc3noc(-c4ccc(F)cc4)c3c2)OCCO1`, the IC50 in test [3] was 19.3 µM (active); in [4], > 66 µM (inactive).

As to `O=C1/C(=C\c2ccc([N+](=O)[O-])cc2)CCc2ccccc21`, the concentration for a half-maximal effect (EC50) in [6] is 8.13 µM (active); in test [7], 2.53 µM (active).

`[O-][S+](Cc1cc(Oc2ccccc2)nc(-c2ccccc2)n1)c1ccccc1` (stereo not given): the EC50 in [1] is 7.24 µM (active). Also, the AC50 in test [17] was 28.2 µM (inconclusive); in test [13] it was 1.26 µM (inconclusive); in test [14], 3.98 µM (inconclusive).

As to `CC1CN(C(=O)N2c3ccccc3Sc3ccccc32)C(C)CC1=O` (stereo not given), in test [1], the EC50 is 8.31 µM (active).

Consider `Cc1ccc(NC(=O)N2CCC(c3ccccc3)C2)cc1C` (stereo not given), for which the EC50 in test [6] and in test [7] was > 112 µM (not active) in each case.

As to `O=C(Cn1cccc1)N1CCN(c2ccc(F)cc2)CC1`, the EC50 in test [6] and in test [7] was > 112 µM (not active) throughout.
